The source of these data is patent publication US10144742B2 (Millennium Pharmaceuticals, Inc., priority 2014, dated 2018).

In one experiment the test system is PC3 cells. In words: PC3 growth inhibition (Cell-titer glo, 72 hours). The experiment is classed as cell-based. The note with it: Homo sapiens, PC-3, PC3 cells, 72 hours, Cell-titer glo, read-out: Percent Inhibition (PC3 growth inhibition); for inhibition at 1 µM: compound concentration 1 μM; for inhibition at 1.667 µM: compound concentration 1.667 μM. Put shortly:
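PC3 cells in RPMI1640 seeded overnight at 37 °C, 5% CO2, then exposed to compound diluted in AIM serum-free medium for 72 h. Viability by CellTiter-Glo luminescence vs DMSO controls; single-concentration % remaining viability (1 μM or 1.667 μM), or GI50/LD50 from curves.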

Another experiment has as its target hNAMPT protein (Homo sapiens (Human), UniProt P43490). The experiment can be described thus: NAMPT enzyme assay (TR-FRET/HTRF, BodiPY ligand, anti 6His-Tb). The experiment is classed as binding. The note with it: for IC50: NAMPT IC50 range class, read-out: IC50; for inhibition at 1 µM: read-out: Percent Inhibition. The essentials: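 TR-FRET binding assay in which His-tagged human NAMPT with anti-6His-Tb is displaced by compound from a BodiPY ligand, incubated 1 h at rt in the dark. Excitation was at 320 nm, with the 520/486 nm emission ratio read. IC50 was fitted from inhibition relative to DMSO controls.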

Each structure is given as a SMILES string. Where two headings read alike, the source gives them in different places. A value given as a limit tells only on which side of the number the result lay.

Chain of hNAMPT protein (P43490 whole entry): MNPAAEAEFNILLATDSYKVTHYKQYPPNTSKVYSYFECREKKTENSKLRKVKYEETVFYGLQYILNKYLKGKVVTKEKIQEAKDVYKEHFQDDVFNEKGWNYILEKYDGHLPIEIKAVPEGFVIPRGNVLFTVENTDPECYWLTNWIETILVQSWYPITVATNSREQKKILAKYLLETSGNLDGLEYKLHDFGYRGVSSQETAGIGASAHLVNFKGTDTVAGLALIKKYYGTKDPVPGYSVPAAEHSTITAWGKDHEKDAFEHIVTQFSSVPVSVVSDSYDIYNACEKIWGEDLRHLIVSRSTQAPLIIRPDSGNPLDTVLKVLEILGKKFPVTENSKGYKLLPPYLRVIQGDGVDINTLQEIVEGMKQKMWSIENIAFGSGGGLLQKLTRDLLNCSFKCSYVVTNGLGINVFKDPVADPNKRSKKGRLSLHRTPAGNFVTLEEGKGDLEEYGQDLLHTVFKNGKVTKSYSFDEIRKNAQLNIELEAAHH

As to `O=C(NCCCn1ccnc1)c1ccc2nc(-c3cncnc3)c(-c3ccccc3)nc2c1` [Compound I-242, N-[3-(1H-imidazol-1-yl)propyl]-3-phenyl-2-(pyrimidin-5-yl)quinoxaline-6-carboxamide], the inhibition at 1 µM in the experiment with PC3 cells is -7%; at hNAMPT protein (compound concentration 1 μM) it was 45%. For the same compound, at hNAMPT protein, the IC50 was 1000 to 2000 nM.
On to `O=C(NCCCn1ccnc1)c1ccc2nc(N3CCC4(COC4)C3)c(-c3ccccc3)nc2c1` [Compound I-243, N-[3-(1H-imidazol-1-yl)propyl]-2-(2-oxa-6-azaspiro[3.4]oct-6-yl)-3-phenylquinoxaline-6-carboxamide], for which the inhibition at 1 µM in the experiment with PC3 cells is -6%; at hNAMPT protein (compound concentration 1 μM), 62%. In addition, the half-inhibitory concentration (IC50) on hNAMPT protein was 500 to 1000 nM.
In the case of `O=C(c1ccc2nc(-c3ccc(F)cc3)c(-c3ccc(F)cc3)nc2c1)N1CCc2cn[nH]c2C1` [Compound I-244, [2,3-bis(4-fluorophenyl)quinoxalin-6-yl](1,4,5,7-tetrahydro-6H-pyrazolo[3,4-c]pyridin-6-yl)methanone], the inhibition at 1 µM is 96% in the experiment with PC3 cells and 33% on hNAMPT protein (compound concentration 1 μM). In addition, the IC50 at hNAMPT protein fell in the range of 2000 to 10000 nM.
`COc1cc(OC)cc(-c2nc3cc(C(=O)NCCCn4ccnc4)ccc3nc2-c2ccccc2)c1` [Compound I-245, 3-(3,5-dimethoxyphenyl)-N-[3-(1H-imidazol-1-yl)propyl]-2-phenylquinoxaline-6-carboxamide]: the inhibition at 1 µM with PC3 cells is -8%; at hNAMPT protein (compound concentration 1 μM) it was 62%. Moreover, the IC50 at hNAMPT protein lay within 500 to 1000 nM.
For the compound `O=C(NCCCn1ccnc1)c1ccc2nc(-c3cccs3)c(-c3ccccc3)nc2c1` [Compound I-247, N-[3-(1H-imidazol-1-yl)propyl]-3-phenyl-2-(2-thienyl)quinoxaline-6-carboxamide], the inhibition at 1 µM in the experiment on PC3 cells was -5%; on hNAMPT protein (compound concentration 1 μM), 58%. Besides, the IC50 on hNAMPT protein was in the range of 500 to 1000 nM.
`CC(=O)Nc1cccc(-c2nc3cc(C(=O)NCCCn4ccnc4)ccc3nc2-c2ccccc2)c1` [Compound I-248, 3-(3-acetamidophenyl)-N-[3-(1H-imidazol-1-yl)propyl]-2-phenylquinoxaline-6-carboxamide]: the inhibition at 1 µM worked out at 2% with PC3 cells and 29% at hNAMPT protein (compound concentration 1 μM). Moreover, the IC50 on hNAMPT protein was 2000 to 10000 nM.
On to `O=C(NCCCn1ccnc1)c1ccc2nc(N3CCN4C(=O)CCC4C3)c(-c3ccccc3)nc2c1` (stereo not drawn) [Compound I-250, N-[3-(1H-imidazol-1-yl)propyl]-2-(6-oxohexahydropyrrolo[1,2-a]pyrazin-2(1H)-yl)-3-phenylquinoxaline-6-carboxamide], for which the results for the inhibition at 1 µM in the experiment on PC3 cells and at hNAMPT protein (compound concentration 1 μM) were -6% and 86%, respectively. Moreover, the half-inhibitory concentration (IC50) on hNAMPT protein lay within 100 to 500 nM.
In the same order, the values of `O=C(NCCCn1ccnc1)c1ccc2nc(-c3ccccc3)c(-c3ccncc3)nc2c1` [Compound I-251, N-[3-(1H-imidazol-1-yl)propyl]-2-phenyl-3-(pyridin-4-yl)quinoxaline-6-carboxamide] are 1%, 65% and 100 to 500 nM.
Turning to `O=C(NCCCn1ccnc1)c1ccc2nc(-c3ccccc3)c(-c3ccc4c(c3)CCO4)nc2c1` [Compound I-252, 3-(2,3-dihydro-1-benzofuran-5-yl)-N-[3-(1H-imidazol-1-yl)propyl]-2-phenylquinoxaline-6-carboxamide], the inhibition at 1 µM was 2% in the experiment on PC3 cells and 53% at hNAMPT protein (compound concentration 1 μM). Further, the IC50 at hNAMPT protein lay within 500 to 1000 nM.
Consider `CC(C)Oc1nc2ccc(C(=O)NCCCc3ncc[nH]3)cc2nc1-c1ccc(F)cc1` [Compound I-253, 3-(4-Fluorophenyl)-N-[3-(1H-imidazol-2-yl)propyl]-2-isopropoxyquinoxaline-6-carboxamide], for which the inhibition at 1.667 µM in the experiment on PC3 cells amounted to 2%. Further, at hNAMPT protein, the IC50 was less than 100 nM and the inhibition at 1 µM turned out to be 93%.
For the compound `CC(=O)Nc1ccc(-c2nc3ccc(C(=O)NCCCn4ccnc4)cc3nc2-c2ccccc2)cc1` [Compound I-254, 2-(4-acetamidophenyl)-N-[3-(1H-iniidazol-1-yl)propyl]-3-phenylquinoxaline-6-carboxamide], the inhibition at 1 µM was -8% with PC3 cells and 84% at hNAMPT protein (compound concentration 1 μM). Moreover, the IC50 at hNAMPT protein was in the range of 100 to 500 nM.
Regarding `O=C(NCCCc1ncc[nH]1)c1ccc2nc(N3CCC(N4CCOCC4)CC3)c(-c3ccc(Cl)cc3)nc2c1` [Compound I-255, 3-(4-chlorophenyl)-N-[3-(1H-imidazol-2-yl)propyl]-2-[4-(morpholin-4-yl)piperidin-1-yl]quinoxaline-6-carboxamide], in the experiment with PC3 cells, the inhibition at 1.667 µM was determined as 2%. Besides, the IC50 at hNAMPT protein was less than 100 nM. Besides, the inhibition at 1 µM at hNAMPT protein (compound concentration 1 μM) was greater than 99%.
Turning to `O=C(NCCCc1ncc[nH]1)c1ccc2nc(N3CCSCC3)c(-c3ccc(F)cc3)nc2c1` [Compound I-256, 3-(4-fluorophenyl)-N-[3-(1H-imidazol-2-yl)propyl]-2-(thiomorpholin-4-yl)quinoxaline-6-carboxamide], in the experiment on PC3 cells, the inhibition at 1.667 µM amounted to 2%. The half-maximal inhibitory concentration (IC50) at hNAMPT protein is less than 100 nM. Also, on hNAMPT protein (compound concentration 1 μM), the inhibition at 1 µM was 97%.
`O=C(NCCCn1ccnc1)c1ccc2nc(-c3ccccc3Cl)c(-c3ccccc3)nc2c1` [Compound I-257, 2-(2-chlorophenyl)-N-[3-(1H-imidazol-1-yl)propyl]-3-phenylquinoxaline-6-carboxamide]: the figures for the inhibition at 1 µM in the experiment with PC3 cells and at hNAMPT protein (compound concentration 1 μM) were -8% and 77%, respectively. Further, at hNAMPT protein, the IC50 lay in the range of 100 to 500 nM.
With `O=C(NCCCn1ccnc1)c1ccc2nc(-c3ccc4nccn4c3)c(-c3ccccc3)nc2c1` [Compound I-258, N-[3-(1H-imidazol-1-yl)propyl]-2-(imidazo[1,2-a]pyridin-6-yl)-3-phenylquinoxaline-6-carboxamide], the inhibition at 1 µM was -8% in the experiment with PC3 cells and 67% at hNAMPT protein (compound concentration 1 μM). Further, the IC50 at hNAMPT protein was in the range of 100 to 500 nM.
As to `CN1CCN(Cc2nc3ccc(C(=O)NCCCn4ccnc4)cc3nc2-c2ccccc2)CC1` [Compound I-259, N-[3-(1H-imidazol-1-yl)propyl]-2-[(4-methylpiperazin-1-yl)methyl]-3-phenylquinoxaline-6-carboxamide], the inhibition at 1 µM with PC3 cells is -7%; on hNAMPT protein (compound concentration 1 μM), 44%. Also, the IC50 on hNAMPT protein was 1000 to 2000 nM.
For `O=C(NCCCn1ccnc1)c1ccc2nc(-c3ccccc3)c(-c3ccccc3)nc2c1` [Compound I-261, N-[3-(1H-imidazol-1-yl)propyl]-2,3-diphenylquinoxaline-6-carboxamide] the same measures were -1%, 67% and 100 to 500 nM.
For the compound `O=C(NCCCn1ccnc1)c1ccc2nc(N3CCCCCC3)c(-c3ccccc3)nc2c1` [Compound I-262, 2-(azepan-1-yl)-N-[3-(1H-imidazol-1-yl)propyl]-3-phenylquinoxaline-6-carboxamide], the values for the inhibition at 1 µM in the experiment on PC3 cells and on hNAMPT protein (compound concentration 1 μM) were -7% and 91%, respectively. In addition, at hNAMPT protein, the IC50 is less than 100 nM.
On to `NC(=O)c1cccc(-c2nc3cc(C(=O)NCCCn4ccnc4)ccc3nc2-c2ccccc2)c1` [Compound I-263, 3-(3-carbamoylphenyl)-N-[3-(1H-imidazol-1-yl)propyl]-2-phenylquinoxaline-6-carboxamide], for which the inhibition at 1 µM is 1% with PC3 cells and 81% on hNAMPT protein (compound concentration 1 μM). The IC50 at hNAMPT protein lay in the range of 100 to 500 nM.
For `CC(=O)Nc1ccccc1-c1nc2ccc(C(=O)NCCCn3ccnc3)cc2nc1-c1ccccc1` [Compound I-264, 2-(2-acetamidophenyl)-N-[3-(1H-imidazol-1-yl)propyl]-3-phenylquinoxaline-6-carboxamide] the same measures were -8%, 41% and 1000 to 2000 nM.
Turning to `O=C(NCCCn1ccnc1)c1ccc2nc(-c3ccccc3)c(N3CCCCCC3)nc2c1` [Compound I-265, 3-(azepan-1-yl)-N-[3-(1H-imidazol-1-yl)propyl]-2-phenylquinoxaline-6-carboxamide], the inhibition at 1 µM with PC3 cells turned out to be 11%; at hNAMPT protein (compound concentration 1 μM), 17%. The IC50 at hNAMPT protein is 2000 to 10000 nM.
`O=C(c1ccc2nc(-c3ccc(F)cc3)c(-c3ccc(F)cc3)nc2c1)N1CCc2nocc2C1` [Compound I-266, [2,3-bis(4-fluorophenyl)quinoxalin-6-yl](6,7-dihydroisoxazolo[4,3-c]pyridin-5(4H)-yl)methanone]: the inhibition at 1 µM stood at 104% with PC3 cells and 15% on hNAMPT protein (compound concentration 1 μM). The IC50 at hNAMPT protein was 2000 to 10000 nM.
On to `O=C(NCCCn1ccnc1)c1ccc2nc(N3CCC(N4CCOCC4)C3)c(-c3ccccc3)nc2c1` (stereo not drawn) [Compound I-267, N-[3-(1H-imidazol-1-yl)propyl]-2-[3-(morpholin-4-yl)pyrrolidin-1-yl]-3-phenylquinoxaline-6-carboxamide], for which the inhibition at 1 µM in the experiment on PC3 cells was -7%; on hNAMPT protein (compound concentration 1 μM), 81%. Besides, the IC50 at hNAMPT protein lay in the range of 100 to 500 nM.
Regarding `O=C(NCCCn1ccnc1)c1ccc2nc(N3CCC4(CC3)Cc3ccccc3O4)c(-c3ccccc3)nc2c1` [Compound I-268, N-[3-(1H-imidazol-1-yl)propyl]-3-phenyl-2-(1′H,3H-spiro[1-benzofuran-2,4′-piperidin]-1′-yl)quinoxaline-6-carboxamide], the inhibition at 1 µM in the experiment with PC3 cells is -6%; at hNAMPT protein (compound concentration 1 μM) it was 63%. For the same compound, the IC50 at hNAMPT protein is 1000 to 2000 nM.
In the same order, the values of `O=C(NCCc1cccnc1)c1ccc2nc(-c3ccc(F)cc3)c(-c3ccc(F)cc3)nc2c1` [Compound I-269, 2,3-bis(4-fluorophenyl)-N-[2-(pyridin-3-yl)ethyl]quinoxaline-6-carboxamide] are 0%, 73% and 100 to 500 nM.
